Molecular target: Envelope glycoprotein gp160 (Human immunodeficiency virus type 1 group M subtype B (isolate HXB2)(HIV-1), UniProt P04578)
Experiment: Binding affinity towards HIV glycoprotein gp120

Q: Which Kd does the source give for `CCCCCCCCCCCCC/C=C/[C@@H](O)[C@H](CO[C@@H]1O[C@@H](CO)[C@H](O)[C@H](O)[C@@H]1O)NC(=O)OCCCCCCCCCCCCCCCCCCCCCCC` here?
A: 11.4 nM

Source: ChEMBL document CHEMBL1132866, “Synthesis of glycolipid analogues that disrupt binding of HIV-1 gp120 to galactosylceramide” (Bioorg Med Chem Lett, 2000)
